Measurements reported in patent US20250319162A1, “METHODS AND MATERIALS FOR TREATING OBESITY” (Regents of the University of California, priority 2024, published 2025).
“Also recorded” adds a separate entry of the source.

Columns and labels:
[1] = RalA inhibitor treatment of mice: body weight, tissue weight, blood glucose; assay type: in vivo
Excerpt: To test the effects of RalA inhibition in reducing body weight, tissue weight and blood glucose level in mice, mice were weighed before injecting with either RalA inhibitor, BQU57, or DMSO (vehicle). Post injection, mice were weighed every 2 days.

[2] = tested on: primary and immortalized adipocytes; assay: TMRM live-cell imaging of mitochondrial membrane potential in adipocytes; assay type: cell-based, mice; details: adipocytes treated with 1 μM CL-316,243 for indicated times
Excerpt: FIGS. 10A-10J. […] FIG. 10A: Calculation of individual OCR in differentiated primary adipocytes (n=8 biological samples). P=0.0008, P=0.0175, P=0.0042. FIG. 10B: Representative immunoblot of RalA and β-Tubulin in immortalized preadipocytes and differentiated adipocytes. (n=3 biological samples). FIG. 10C: Quantification of mean TMRM fluorescence intensity in primary adipocytes and immortalized adipocytes (n=3 independent cells). P<0.0001, P<0.0001. FIG. 10D: Time course TMRM intensity quantification in primary and immortalized adipocytes (n=4 biological samples). Adipocytes were treated with 1 μM CL-316,243 (CL) for indicated times. P=0.0015, P=0.0044 (left panel). P<0.0001, P=0.0154, P=0.0095 (right panel). FIGS. 10E and 10F: Quantification of NEFA (FIG. 10E) and free glycerol (FIG. 10F) released into medium from immortalized adipocytes (n=3 biological samples). Cells were treated with 1 μM CL, 100 nM insulin, or in combination prior to medium collection. P=0.0301, P=0.0051 (FIG. 10F). FIGS. 10G and 10H: Plasma levels of NEFA (FIG. 10G) and free glycerol (FIG. 10H) in CD-fed Rala^f/f and Rala^AKO mice (n=6). P=0.0027, P=0.0173 (FIG. 10H). Mice were i.p. injected with CL or vehicle prior to blood sampling. FIGS. 10I and 10J: Plasma levels of NEFA (FIG. 10I) and free glycerol (FIG. 10J) in CD-fed Rala^f/f (n=4) and Rala^AKO (n=5) mice. […]

[3] = tested on: immortalized adipocytes; assay: In vitro lipolysis (FFA and glycerol release) in immortalized adipocytes; assay type: cell-based, mice
Protocol: Primary preadipocytes from Rala^f/f mice were immortalized by retroviral transduction of pBabe-zeo-LT-ST (SV40) and selection by Zeocin^75. Single-cell clones were selected and tested for differentiation capacity. […] To generate Rala KO cells, immortalized Rala^f/f (WT) preadipocytes were transduced with lentiviral Cre with 8 μg/mL Polybrene for 12 hours, then cultured in DMEM/F12-FBS medium. Cre recombinase efficiency was tested in preadipocytes and adipocytes. Once 95-100% confluency was reached (day 0), differentiation was induced as described above. On the day of the experiment, cells were starved in DMEM/F12 medium for 3 hours before treatments.
Fully differentiated primary adipocytes in a 24-well plate were serum-starved in lipolysis medium (2% BSA-phenol-red-free DMEM) for 3 hours. For insulin treatment, 100 nM insulin was added to cells for 30 minutes starting at 2.5 hours of starvation. After starvation, the medium was replaced with 0.5 mL fresh lipolysis medium with vehicle, 1 μM CL-316,243 (CL), 100 nM insulin or in combination. The medium was collected 1 hour after incubation at 37° C. Released FFAs and free glycerol levels were measured using 100 μL medium with a NEFA kit (WAKO) and Free Glycerol Reagent (Sigma) according to the manufacturer's protocol.

[4] = tested on: primary differentiated adipocytes; assay: Seahorse oxygen consumption rate in differentiated primary adipocytes; assay type: cell-based, mice; details: addition of etomoxir
Protocol: The cellular oxygen consumption rate (OCR) was measured using an eXF96 Extracellular Flux Analyzer and analyzed by Agilent Seahorse Wave Software (Seahorse Bioscience). Before performing the assay, 2,500 primary preadipocytes were seeded and differentiated in XF96 microplates. Once fully differentiated, the adipocyte culture medium was changed to assay medium containing 25 mM glucose, 1 mM pyruvate and 2 mM L-glutamine, and 0.5 mM carnitine without phenol red or sodium bicarbonate for 3 hours. Before taking measurements, cells were incubated in a CO2-free incubator for 15 minutes. Basal rates of respiration were measured in assay medium and followed with sequential injections of oligomycin (2 μM), FCCP (0.5 μM) and rotenone with antimycin A (each 0.5 μM). Oxygen consumption values were normalized to total protein content.

[5] = In vivo insulin-suppressed lipolysis; details: single injection of insulin, fasted CD-fed control and Rala AKO mice
Protocol: CD-fed mice were used for in vivo lipolysis. For CL-induced lipolysis, ad libitum-fed mice were i.p. injected with PBS or CL (1 mg/kg) for 60 minutes. Circulating FFAs and free glycerol levels were measured using 2 μL plasma with a NEFA kit (WAKO) and Free Glycerol Reagent (Sigma), respectively. For insulin-suppressed lipolysis, overnight-fasted mice were i.p. injected with insulin (0.5 U/kg) for 60 minutes. Circulating FFAs and free glycerol levels were measured at the indicated conditions.

In the case of Cc1nn(C)c2c1C(c1ccc(C(F)(F)F)cc1)C(C#N)=C(N)O2 (centres unmarked) [BQU57], the body weight ([1]; mice injected with BQU57 vs DMSO vehicle, weighed every 2 days, 23 days of treatment) is reported as “significant weight loss; also recorded: reduced body weight”, the blood glucose level ([1]; mice, BQU57 vs vehicle group) is reported as “significant reduction in the blood glucose level” and the “subcutaneous WAT (sWAT) weight” value ([1]; mice, post treatment with BQU57) is reported as “marked reduction of subcutaneous WAT (sWAT) weight”.
In the case of C[C@H](Cc1ccc2c(c1)OC(C(=O)[O-])(C(=O)[O-])O2)NC[C@H](O)c1cccc(Cl)c1.[Na+].[Na+] [CL-316,243], the “TMRM signal (mitochondrial membrane potential)” value [2] is reported as “TMRM signal declined quickly” and the “FFA and glycerol release” value ([3]; 1 μM CL, KO and WT immortalized adipocytes) is reported as “robustly stimulated FFA and glycerol release”.
With CCOC(=O)[C@@]1(CCCCCCOc2ccc(Cl)cc2)CO1 [etomoxir] the “difference in maximal respiration (OCR) between KO and control adipocytes” value [4] was “blunted”.
In the case of “insulin: insulin used at 100 nM in cells or injected i.p. (human insulin, Sigma)”, the “plasma FFA levels” value [5] is reported as “reduced FFA levels” and the “suppression of CL-induced FFA release” value ([3]; 100 nM insulin with 1 μM CL, both WT and KO cells) is reported as “approximately 50%”.
